Assay results as given in publication PMC4774894 (Journal of natural products, 2015).

Test system: HIV-1 NL4-3
Details: for selectivity index CC50/EC50: CC50 (MT4 cells) / EC50 (HIV-1 NL4-3 in MT4); for selectivity index (SI) (bound or span stated in text for a group of compounds): bound or span over the group named

Structure (SMILES)	selectivity index CC50/EC50	selectivity index (SI) (bound or span stated in text for a group of compounds)
C=C(C)[C@]12C[C@@H](COC(=O)c3ccccc3)[C@]34OC5(CCCCCCC[C@H](C)[C@@H]6[C@@H]3[C@]3(O[C@]6(C)OC3=O)[C@H](O)[C@@]3(COC(=O)CCCCCCCCCCCCCCC)O[C@H]3[C@H]4[C@H]1O5)O2 [Compound 1, Stelleralide D]	≥18	< 50
C=C(C)[C@]12C[C@@H](COC(=O)c3ccccc3)[C@]34OC5(CCCCCCC[C@H](C)[C@@H]6[C@@H]3[C@]3(O[C@]6(C)OC3=O)[C@H](O)[C@@]3(COC(=O)CCCCCCC/C=C\C/C=C\CCCCC)O[C@H]3[C@H]4[C@H]1O5)O2 [Compound 2, Stelleralide E]	≥1	< 50
C=C(C)[C@]12C[C@@H](COC(C)=O)[C@@]34OC5(O[C@@H]1[C@@H]3[C@@H]1O[C@]1(CO)[C@@H](O)[C@@]1(O)[C@H]4[C@H]([C@H](C)[C@@H]1OC(=O)c1ccccc1)[C@H](C)C[C@@H](OC(=O)c1ccccc1)CCCC[C@H]5O)O2 [Compound 3, Stelleralide F]	≥12903	more than 10 000
C=C(C)[C@]12C[C@@H](COC(=O)c3ccccc3)[C@@]34OC5(O[C@@H]1[C@@H]3[C@@H]1O[C@]1(CO)[C@@H](O)[C@@]1(O)[C@H]4[C@H]([C@H](C)[C@@H]1OC(=O)c1ccccc1)[C@H](C)C[C@@H](OC(=O)c1ccccc1)CCCC[C@H]5O)O2 [Compound 4, Stelleralide G]	≥15342	more than 10 000
C=C(C)[C@]12C[C@@H](COC(=O)c3ccccc3)[C@@]34OC5(O[C@@H]1[C@@H]3[C@@H]1O[C@]1(COC(=O)c1ccccc1)[C@@H](O)[C@@]1(O)[C@H]4[C@H]([C@H](C)[C@@H]1O)[C@H](C)CCCCCC[C@H]5O)O2 [Compound 5, Stelleralide H]	≥13163	more than 10 000
C=C(C)[C@@]12OC3(/C=C/C=C/CCCCCCCCCC)O[C@@H]1[C@@H]1[C@@H]4O[C@]4(CO)[C@@H](O)[C@]4(O)C(=O)C(C)=C[C@H]4[C@@]1(O3)[C@H](C)[C@H]2O [Compound 6, Stelleralide I]	≥135	
C=C(C)[C@]1(O)C[C@@H](C)[C@@]2(O)[C@H]([C@H]1OC(=O)/C=C/C=C/CCCCCCCCC)[C@H](O)[C@@](O)(CO)[C@@H](O)[C@]1(O)C(=O)C(C)=C[C@H]12 [Compound 7, Stelleralide J]	≥100	
C=C(C)[C@]12C[C@@H](COC(=O)c3ccccc3)[C@]34OC5(CCCCCCC[C@H](C)[C@@H]6[C@@H]3[C@]3(O[C@]6(C)OC3=O)[C@H](O)[C@@]3(CO)O[C@H]3[C@H]4[C@H]1O5)O2 [Compound 8, stelleralide C]	≥41	< 50
C=C(C)[C@]12C[C@@H](C)[C@]34O[C@]5(CCCCCCC[C@H](C)[C@@H]6[C@@H]3[C@]3(O[C@]6(C)OC3=O)[C@H](O)[C@@]3(CO)O[C@H]3[C@H]4[C@H]1O5)O2 [Compound 9, pimelotide A]	≥16	< 50
C=C(C)[C@]12C[C@@H](COC(=O)c3ccccc3)[C@@]34OC5(O[C@@H]1[C@@H]3[C@@H]1O[C@]1(CO)[C@@H](O)[C@@]1(O)[C@H]4[C@H]([C@H](C)[C@@H]1OC(=O)c1ccccc1)[C@H](C)CCCCCC[C@H]5O)O2 [Compound 10, gnidimacrin]	≥21500	more than 10 000
C=C(C)[C@]12C[C@@H](C)[C@@]34OC5(CCCCCCC[C@@H](C)[C@H]6[C@H](C)[C@H](OC(=O)c7ccccc7)[C@@](O)([C@H](O)[C@@]7(CO)O[C@H]7[C@H]3[C@H]1O5)[C@@H]64)O2 [Compound 11, pimelea factor P2]	≥14272	more than 10 000
C=C(C)[C@]12C[C@@H](COC(=O)c3ccccc3)[C@@]34OC5(CCCCCCC[C@@H](C)[C@H]6[C@H](C)C(=O)[C@@](O)([C@H](O)[C@@]7(CO)O[C@H]7[C@H]3[C@H]1O5)[C@@H]64)O2 [Compound 12, wikstroelide F]	≥318	
C=C(C)[C@@]12O[C@@]3(/C=C/C=C/CCCCCCCCC)O[C@@H]1[C@@H]1[C@@H]4O[C@]4(CO)[C@@H](O)[C@]4(O)C(=O)C(C)=C[C@H]4[C@@]1(O3)[C@H](C)[C@H]2OC(C)=O [Compound 13, wikstroelide A]	≥1300	
C=C(C)[C@@]12OC3(/C=C/C=C/CCCCCCCCCC)O[C@@H]1[C@@H]1[C@@H]4O[C@]4(CO)[C@@H](O)[C@]4(O)C(=O)C(C)=C[C@H]4[C@@]1(O3)[C@H](C)[C@H]2OC(C)=O [Compound 14, wikstroelide B]	≥392	
C=C(C)[C@]12C[C@@H](C)[C@@]34OC(/C=C/C=C/CCCCCCCCCC)(O[C@@H]1[C@@H]3[C@@H]1O[C@]1(CO)[C@@H](O)[C@]1(O)C(=O)C(C)=C[C@H]14)O2 [Compound 15, wikstrotoxin A]	≥1284	
C=C(C)[C@]12C[C@@H](C)[C@@]34O[C@](/C=C/C=C/CCCCCCCCC)(O[C@@H]1[C@@H]3[C@@H]1O[C@]1(CO)[C@@H](O)[C@]1(O)C(=O)C(C)=C[C@H]14)O2 [Compound 16, huratoxin]	≥5384	
C=C(C)[C@]1(O)C[C@@H](C)[C@@]2(O)[C@H]([C@H]1OC(=O)/C=C/C=C/CCCCCCCCC)[C@@H]1O[C@]1(CO)[C@@H](O)[C@]1(O)C(=O)C(C)=C[C@H]12 [Compound 17, wikstroelide M]	≥281	
C=C(C)[C@@]1(O)[C@H](OC(=O)/C=C/C=C/CCCCCCCCC)[C@@H]2[C@@H]3O[C@]3(CO)[C@@H](O)[C@]3(O)C(=O)C(C)=C[C@H]3[C@@]2(O)[C@H](C)[C@H]1OC(C)=O [Compound 18, wikstroelide J]	≥345	
C=C(C)[C@]12C[C@@H](C)[C@@]34O[C@](CCCCCCCCC)(O[C@@H]1[C@@H]3[C@@H]1O[C@]1(CO)[C@@H](O)[C@]1(O)C(=O)C(C)=C[C@H]14)O2 [Compound 19, simplexin]	≥400	
